Test results as given in a melting point compilation (Tetko et al.; mined from patent text by program, amines drawn as free bases though some values may be those of a salt).

| SMILES | melting point [°C] |
| --- | --- |
| COC(=O)c1ccc(OC2=C3N=C4CCCCC4=C3C(Cc3cccc(F)c3)C=C2)o1 (stereo unspecified) | 86 to 88 |
| Cc1nc(N2CCCC(Cc3cccnc3)C2=O)sc1C(=O)NCc1ccccc1 (stereo unspecified) | 140 to 141 |
| CC#Cc1cc(=O)n2nc(S(=O)(=O)CCCCCC)sc2n1 | 122 to 125 |
| Cc1cc(-c2nc3cccnn3c2-c2ccnc(NC(=O)NCC(C)O)c2)ccc1F (stereo unspecified) | 139 to 140 |
| CC(=O)Oc1c2c(c3ccccc3c1OC(=O)CNC(=O)OC(C)(C)C)OC(C)(C)CC2 | 177 |
| Oc1ccc(-c2nc3cc(Cl)c(O)cc3o2)cc1 | 254 to 256 |
| NC(=O)c1ncn(CCCc2ccc(OCc3coc(/C=C/c4ccccc4)n3)cc2)c1C(N)=O | 194 to 195 |
| O=c1c2cccc(F)c2nc2sccn12 | 187 to 189 |
| O=C(c1ccc(C(=O)N2CC3COCC3C2)cc1)N1CC2COCC2C1 (stereo unspecified) | 192 to 193 |
| COc1cccc(C2(C#N)CCN(C(=O)CN3CCN(c4cnccn4)CC3)CC2)c1 | 108 |
| ClCc1nc(Cl)c2ccccc2n1 | 99 to 101 |
| CC(C)(C)c1cc(-c2csc(CN3CCOCC3)n2)cc(C(C)(C)C)c1O | 137 |
| CC(C)Oc1ccc(C=O)cc1OCCN1C(=O)c2ccccc2C1=O | 110 |
| CN(C)c1ccc(C(=S)Nc2ccc([N+](=O)[O-])cc2)cc1 | 210 |
| O=S1(=O)NCN(C2CC2)c2ccc(C(F)(F)F)cc21 | 155 to 157 |
| COc1cc(Oc2cccc(OC(F)(F)F)c2)nc(C(=O)Nc2ccccc2)c1 | 95 to 98 |
| Oc1ccccc1-c1noc2ccsc12 | 121 |
| O=C1N(Cc2nsc(Cl)n2)c2cccc(Cl)c2C12COc1cc3c(cc12)OCO3 (stereo unspecified) | 174 to 176 |
| CC(C)(C)Nc1nc2cc(Cl)c(Cl)cc2[nH]1 | 219 to 221 |
| Nc1c(F)c(F)cc(F)c1[N+](=O)[O-] | 66 |

| SMILES | melting point [°C] |
| --- | --- |
| CCCCCCCN(CCCCCSc1nc2cc(C)ccc2[nH]1)C(=O)Nc1ccc(F)cc1F | 70 to 72 |
| CC(c1ccncn1)C(O)(Cn1cncn1)c1ccc(F)cc1F (stereo unspecified) | 114 to 116 |
| O=C(NCc1ccccn1)Nc1cc(NC(=O)c2ccccn2)ccn1 | 206 to 207 |
| N#Cc1ccc(CCC(=O)c2ccc(C#N)cc2)cc1 | 149 to 152 |
| CC(C)CNC(=O)[C@H]1C[C@@H](S(=O)(=O)c2ccc([N+](=O)[O-])cc2)[C@@H](c2ccccc2F)N1 (racemic) | 218 |
| CCCCCCCCCCCCCCCCCNC(=O)OCCSCCOC(=O)N(Cc1ccccn1)C(C)=O | 62 to 63 |
| COc1ccc2c(c1)Sc1ccc(SC)cc1C(=O)C2 | 127 |
| C#Cc1[nH]c2cccc3c2c1CC1C3CC(NC(=O)N(CC)CC)CN1C (stereo unspecified) | 192 |
| Cc1nnc2n1-c1ccccc1NC2(C)C | 177 to 178 |
| CC(C)(C)OC(=O)N1CCC(c2ccc([N+](=O)[O-])cc2)CC1 | 60 to 62 |
| O=C(CN1CCCCC1)Nc1ccc(NC(=O)Nc2ccc(N(CCCl)CCCl)cc2)cc1 | 227 to 229 |
| CC1Nc2ccc(-c3cc(F)cc(C#N)c3)cc2C(C)(C)O1 (stereo unspecified) | 163 to 164 |
| CCCCC(=O)Nc1cc(C(=O)N2CCOCC2)ccn1 | 110 to 112 |
| CN(C)c1ccc(-c2cc(N)n[nH]2)cc1 | 169 to 170 |
| Cc1nccn1-c1nc(NCc2ccccc2)c2ccccc2n1 | 182 to 186 |
| O=C(COc1ccc2c(-c3ccccc3F)noc2c1Br)NO | 165 to 167 |
| c1ccc(C23CC(C2)C3)cc1 | 64 to 65 |
| COc1c(Br)c(-c2ccc(C(C)(C)C)s2)cc2oc(=O)c(C)c(C)c12 | 170 |
| O=C(Cc1ccccc1)c1ccc(OCC2CO2)cc1 (stereo unspecified) | 81 to 82.4 |
| N#Cc1c(Cl)nc2cscc2c1Cl | 228 |

| SMILES | melting point [°C] |
| --- | --- |
| N#CCc1cccc2nnsc12 | 78 to 80 |
| CCOC(=O)N=C1N(c2c(C)cccc2C)CC(C)N1c1c(C)cccc1C (stereo unspecified) | 124 to 125 |
| CCOP(=O)(Cc1ccc(NC(=O)C2=Cc3cc(C4CCCCC4)ccc3CC2)cc1)OCC | 137 to 138 |
| O=[N+]([O-])C=Cc1ccc(O)c(Br)c1 | 132 to 134 |
| COC(=O)c1ccc(CN2CCN(c3nc(C)c(C(C)=O)s3)C2=O)cc1 | 174 to 175 |
| Cc1ncc([N+](=O)[O-])n1CCN(CCCCCCCCN(CCn1c([N+](=O)[O-])cnc1C)CCn1c([N+](=O)[O-])cnc1C)CCn1c([N+](=O)[O-])cnc1C | 157 to 158 |
| CC1(C)OC(=S)Nc2ccc(-c3cc(Cl)cc(C#N)c3)cc21 | 249 to 251 |
| CCn1cc(C(=O)Nc2cc(Oc3ccc4nc(NC(=O)C5CC5)cn4n3)ccc2F)c(C)n1 | 199 |
| CCc1nnc(-c2ccc(OC)cc2)n1-c1ccccc1 | 118 |
| COCc1cnc(C(=O)O)c(C(=O)O)c1 | 161 to 162 |
| Cc1nn(-c2ccccn2)c2c1c(=O)c1ccccc1n2C | 192 to 193 |
| CCN1C(=O)C(C)(C)C(=O)N(C)c2cc(CN(CCn3cc(C)c4occc4c3=O)Cc3cc(COC)nn3C)ccc21 | 169 to 170 |
| Cn1nc(-c2ccc(F)cc2F)cc1C(F)(F)F | 51 |
| O=C(Nc1ccc(Sc2ccncc2)cc1)c1ccc([N+](=O)[O-])cc1 | 295 to 298 |
| COc1cc(-c2nc3ccc(OCCCN4CCCCC4)cc3n2Cc2ccccc2C(F)(F)F)cc(OC)c1OC | 138 |
| Cn1nc2c(-c3ccc(Cl)cc3Cl)cccc2c1C(=O)NCCO | 188 to 190 |
| CCNc1nc(Cc2cc(OC)c(OC)c(OC)c2)nc2sc(C#N)c(C)c12 | 164 to 165 |
| COn1c(C#N)c(Br)c(Br)c1-c1ccc(Cl)c(Cl)c1 | 145 to 150 |

The next lines start with the values.

| melting point [°C] | SMILES |
| --- | --- |
| 166 to 169 | Cc1cc(-c2nnn(C)n2)cc(C)c1OCCCC(O)c1cc2cccnc2[nH]1 (stereo unspecified) |
| 104 | CC(=O)N(C)C(CCl)C(=O)O (stereo unspecified) |
| 226 to 227 | NC(=O)c1sc(-n2cnc3cnccc32)cc1OCc1ccccc1C(F)(F)F |
| 220 to 222 | Nc1nc(-c2ccc(Cl)cc2)c(CCC(=O)N2CCS(=O)(=O)CC2)s1 |
| 94 | COc1nccc2c([N+](=O)[O-])c(C)ccc12 |
| 147 to 149 | C#CCN1CCC[C@H](NCc2ccccc2OC)[C@@H]1c1ccccc1 (relative stereo) |
| 178 to 180 | Cc1ccc(S(=O)(=O)OCC2COc3ccc(N)c(N)c3O2)cc1 (stereo unspecified) |
| 102 to 104 | O=C(O)c1ccc(C(F)(F)F)nc1C(F)(F)F |
| 184 to 186 | Cn1ccc(COc2nn3c(-c4ccccc4F)nnc3cc2C2CCC2)n1 |
| 212 to 214 | CCN1C(=O)C(C(=O)Nc2ccc(F)cc2)c2cc3c(cc21)C=CCO3 (stereo unspecified) |
| 93 to 95 | CCOC(=O)C1=C(COCCN(C)S(C)(=O)=O)NC(C)=C(C(=O)OC)C1c1ccccc1Cl (stereo unspecified) |
| 239 to 240 | Cc1[nH]c(=O)[nH]c1C(=O)Cc1ccccc1 |
| 89 | N#Cc1ccc(C=O)c(SCCc2ccccc2)c1 |
| 72.5 to 73.5 | CCOP(=O)(OCC)c1ccc(/C=C(\C)c2ccc3c(c2)C(C)(C)CCC3(C)C)cc1 |
| 118 to 120 | CN(CCOc1cccc2cc(S(=O)(=O)c3ccccc3)n(C(=O)OC(C)(C)C)c12)C(=O)OC(C)(C)C |
| 111 to 112 | CCN1CCN(Cn2nc(-c3ccsc3)c3c2-c2ccccc2C3)CC1 |
| 105 to 108 | CCCCc1nc2c(N)nc3cccnc3c2n1CCCCNC(=O)c1ccc(C(OCCN(C)C)c2ccccc2)cc1 (stereo unspecified) |
| 145 to 150 | NC(=CC(=O)c1ccccn1)C1CC1 |
| 76 to 80 | CCCCc1oc2ccc([N+](=O)[O-])cc2c1C(=O)c1ccc(OCCCO)cc1 |
| 160 to 161 | COC(=O)c1cc(-c2nc(CCl)c(C)o2)ccc1OS(C)(=O)=O |
| 108 | CCCCCCCCC=CCCCCCCCCN1CC(C(=O)OC)N(S(=O)(=O)c2ccc(-c3ccc(Br)cc3)cc2)CC1=O (stereo unspecified) |
| 203 | CCCCc1nc2sccc2n1Cc1ccc(-c2ccccc2C(=O)O)cc1 |

| melting point [°C] | SMILES |
| --- | --- |
| 59 to 60.2 | C#CC(=O)NCCCCC |
| 41 to 42 | CCCS(=O)(=O)c1ncc(C(F)(F)F)cc1Cl |
| 194 to 195 | c1ccc(C2CNc3c4c(nc5cccc(c35)O2)CCCC4)cc1 (stereo unspecified) |
| 165 to 167 | CSc1ccc([N+](=O)[O-])nc1 |
| 113 to 128 | CCC1Oc2ccc(CN3CCN(c4ccncc4)CC3)cc2NC1=O (stereo unspecified) |
| 186 to 188 | CCOc1ccc(C2=CC(C)(C)Oc3c(OCC)cc(Cc4cnc(N)nc4N)cc32)cc1 |
| 130 to 140 | Cc1cc(C)nc(-n2c(C(=O)Nc3ccc4c(c3)nc(C)n4C)cc3cc(F)ccc32)c1 |
| 137 to 138 | CC(Oc1ccc(Cl)cc1Cl)c1ccnc2ncnn12 (stereo unspecified) |
| 106 to 107 | COCCNC(=O)c1cccc(-c2cccc3cc(Cc4cc(F)cc(C(F)(F)F)c4)sc23)c1 |
| 78 | O=Cc1csc(Cc2ccccc2)n1 |
| 132 to 134 | CCCCOc1cc(C)c(NC(=O)C(C)Br)c(C)c1 (stereo unspecified) |
| 138 to 142 | O=C(O)c1cn(C2CC2)c2c(Cl)c(N3CCC(CNCCF)C3)c(F)cc2c1=O (stereo unspecified) |
| 270 | Cc1c(C(=O)Nc2ccc(N3CCC(N4CCOCC4)CC3)c(C(N)=O)c2)cnn1-c1ccc(Cl)cc1 |
| 170 to 172 | CC(=O)Nc1ccc(C#N)cc1F |
| 101 | CC(NSC(=O)OC(C)(C)C)C(=O)n1c(=O)[nH]c2ccccc21 (stereo unspecified) |
| 244 to 245 | COc1ccc(NC(C)=O)c(OC)c1-c1ccc(C[C@H](NC(=O)c2c(Cl)cccc2Cl)C(=O)O)cc1 |
| 262 to 264 | COc1ccc(-c2cc3c(s2)c(=O)c(S(C)=O)cn3C)cc1 (stereo unspecified) |
| 169 to 170 | CC1=C2CCN(CCC(N)=O)CC2c2ccccc21 (stereo unspecified) |
| 132 | O=c1ccccn1CCCn1ccccc1=O |
| > 280 | c1cc(-c2nc3cc4[nH]cnc4cc3[nH]2)ccn1 |
| 217 | CN1CCC(c2c[nH]c3ccc(-n4ccnc4)cc23)CC1 |
